Source: patent publication US20070238700A1, “N-PHENYL-1,1,1-TRIFLUOROMETHANESULFONAMIDE HYDRAZONE DERIVATIVE COMPOUNDS AND THEIR USAGE IN CONTROLLING PARASITES” (priority 2006, published 2007)
Where two headings read alike, the source gives them in different places.

Tests used:
[1] = tested on: Ctenocephalides felis
Method in brief: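 Adult cat fleas (3–7 days post-emergence), 15 per flask in ≥4 replicates, exposed to a dried acetone residue at 1.26 μg/cm^2 on a Coatasil-treated glass flask base. Held at 25±1° C, 75±5% humidity; mortality (immobile or unable to right) scored at 8, 24 and/or 48 h.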

[2] = tested on: Ctenocephalides felis; test: Ctenocephalides felis adulticide assay: C. felis dose response (LC50)
Source text: c) Ctenocephalides felis Adulticide Assay: C. felis Dose Response
The purpose of this example was to determine the LC50 when cat fleas were contacted with a glass surface treated with sample compounds or formulations prepared as described above. […] The test species was the cat flea (Ctenocephalides felis). The strain used was obtained from external suppliers as pupae and held in the laboratory under testing conditions until the adults had emerged. Fifteen (15) fleas were used in a minimum of four replicates for each dose level (total of 60 fleas per dose level). The insects were selected to be in the adult life stage, aged between 3 and 7 days post emergence.
The compounds to be tested were dissolved in acetone just prior to testing. Samples of compounds were stored in a refrigerator (5±1° C.) unless otherwise specified. During the mortality testing, the temperature was maintained at 25±1° C. Humidity was maintained at 75±5%. The base (area=159 mm^2) of a 100 mL glass Erlenmeyer (conical) flask provided the treatment surface. Flasks were pretreated with Coatasil™ glass treatment to maximise bio-availability of test compounds by preventing them from binding to the glass surface.
The base of the 100 mL Erlenmeyer flask was treated with 0.5 mL of test sample in acetone and gently swirled. This volume was sufficient to cover the base of the flask. Flasks were left to dry for 24 hours before flea exposure. Adult cat fleas were lightly anaesthetised by cooling and then placed into a sorting chamber, which allowed fleas to revive and jump into the Erlenmeyer flasks. Fifteen (15) adult cat fleas were collected in each flask. The top of the flasks were then covered in Parafilm™ and small holes made to allow gas exchange. A 0.5 mL volume of acetone was applied to the base of an Erlenmeyer flask and the testing proceeded in the same manner described above. Cat fleas in the treatment containers were held under testing conditions for 24 hours. Mortality resulting from the treatments was recorded at 8 and 24 hours.

[3] = tested on: Rhipicephalus sanguineus; test: Rapid screening protocol for topical application on brown dog ticks (% mortality); parameters: concentration or dose not given beside the values
Method: d) Rapid Screening Protocol for Topical Application on Brown Dog Ticks (Rhipicephalus sanguineus)
The aim of the test was to determine the presence of significant acaricidal activity in sample compounds or formulations when applied topically on brown dog ticks. A tick was defined as dead if it gave no apparent response when touched lightly and observed for 1 minute. To assess the experimental compound for acaricidal activity, a single dose level was chosen based on known results from previous experiments with a commercially available active reference compound. Both permethrin and fipronil were employed as reference compounds. The insect species tested was the Brown Dog Tick (Rhipicephalus sanguineus). Mixed sex adult ticks were used for tests. The strain used was cultured by von Berky Veterinary Services, Woody Point, QLD, AU and supplied as unfed adult ticks (mixed sex). Ticks were maintained in controlled conditions (temp. 18°±2° C., humidity 75±5% RH).
Test compounds (formulations or active ingredients) were stored in a refrigerator (5±1° C.) unless otherwise specified. Temperature was maintained at 25±1° C. and the humidity was ambient. The screening dose chosen was higher than that known to kill 90% of insects (LD90) using the reference compound. In the case of topical application of active compounds on adult ticks, the reference compound was fipronil and the dose chosen was 10 μg of active per tick (=10 μg of fipronil/1 μl of acetone). Ticks were each treated on the abdomen with 1 μL of a single dose level of test sample in acetone; ten ticks were treated with solvent only (acetone) in each test. Tests were replicated 4 times (total of 40 ticks treated). Ticks were held in recovery containers maintained under appropriate rearing conditions for 24 hours. Mortality resulting from the treatments was recorded at 24 hours. Pooled 24 hour mortality data were converted to percentages.

[4] = tested on: Rhipicephalus sanguineus; test: Dose response protocol for topical application on brown dog ticks (LD50); settings: 24 h mortality, probit analysis
Method: e) Dose response protocol for topical application on brown dog ticks (Rhipicephalus sanguineus): The test determines the level of insecticidal activity of sample compounds or formulations when applied topically on brown dog ticks. Sample compounds were stored prior to use in a freezer (−5±1° C.), unless otherwise specified.
• Mortality: A tick is defined as dead after it gives no apparent response when touched lightly or gently breathed upon, while observed for 30 seconds. • LD50 (Lethal Dose 50): The dose of a topically applied treatment at which 50% of the dog ticks are killed. • Reference compound: To assess an experimental compound for significant acaricidal activity a single dose level is chosen, which is based upon known results from previous experiments using a commercially available active i.e., a reference compound. The reference compound selected is one in common use, and one that has a similar mode of action against the Brown Dog Tick (i.e., the test species), • Recovery container: A recovery container consists of a 500 ml round plastic container measuring 115 mm diameter and 70 mm height, with a tight fitting lid that has 10 small (˜1 mm) holes inserted for air exchange. A 90 mm diameter piece of filter paper was placed on the bottom of the container and moistened with 1 mL of distilled water.
Adult, mixed sex, Brown Dog Ticks (Rhipicephalus sanguineus) were reared as follows: (i) cultured, (ii) transferred unfed, to a testing laboratory, and (iii) then maintained under controlled conditions (i.e., temp. 18°±2° C., humidity 75±5% RH). The ticks used were selected for vigor prior to testing, i.e., capable of actively walking and responsive to being touched or gently breathed upon.
During the testing, the temperature was maintained at 25±1° C. and the humidity was ambient. Seven dose levels (concentrations) of sample compound, in the form of serial dilutions in acetone, were derived from a pilot study and covered a range that produced very low to very high mortality. Groups of ten ticks were treated topically (on the abdomen) with 1 μL of a single dose level of the sample compound. Each test was replicated four times, i.e., employing a total of 40 ticks per dose level of each sample compound. As a control, ten ticks were treated with solvent only (acetone) for each test. Following the treatment, the ticks were held in recovery containers maintained under appropriate rearing conditions for 24 hours. Mortality resulting from the treatments was recorded at 24 hours. […] Press, London (1971).]

SMILES	C. felis Mortality (%) 24 h [1]	C. felis LC50 ([2]; data from laboratory 1) [ppm]	R. sanguineus Mortality (%) 24 h ([3]; data from laboratory 1)	R. sanguineus Mortality (%) 24 h ([3]; data from laboratory 2) [%]	C. felis Mortality (%) 8 h [1] [%]	C. felis LC50 [2] [ppm]	R. sanguineus LD50 [4] [μg/tick]	C. felis Mortality (%) 48 h [1] [%]	C. felis Mortality (%) 24 h ([1]; 24 h, data from laboratory 1) [%]	C. felis Mortality (%) 48 h ([1]; 48 h, data from laboratory 1) [%]
CC(=NN(C)c1ccccc1)c1cc(Cl)ccc1NS(=O)(=O)C(F)(F)F [Compound 9]	100^B %	0.86	88%	98	–	–	–	–	–	–
CC(=NN1CCOCC1)c1cc(Cl)ccc1NS(=O)(=O)C(F)(F)F [Compound 20]	100%	–	95^A %	–	100	0.86	0.75	–	–	–
CC(=NN1CCCCC1)c1cc(Cl)ccc1NS(=O)(=O)C(F)(F)F [Compound 21, N-[2-[1-(1-piperidyl)imino]ethyl-4-chlorophenyl]-trifluoromethanesulfonamide]	100%	0.90	78^A %	–	100	–	0.64	–	–	–
CC(=NN1CCOC1=O)c1cc(Cl)ccc1NS(=O)(=O)C(F)(F)F [Compound 23]	100%	–	95^A %	–	100	2.0	0.99	–	–	–
CCCN(N=C(C)c1cc(Cl)ccc1NS(=O)(=O)C(F)(F)F)c1ccccc1 [Compound 25]	100%	–	75^A %	–	100	1.8	1.2	–	–	–
CCN(N=C(C)c1cc(Cl)ccc1NS(=O)(=O)C(F)(F)F)c1ccc(Cl)cc1 [Compound 26]	100%	–	–	97	–	0.12	5.4	100	–	–
CCCN(N=C(C)c1cc(Cl)ccc1NS(=O)(=O)C(F)(F)F)c1ccc(Cl)cc1 [Compound 27]	100%	–	–	95	–	0.23	5.5	100	–	–
CCN(N=C(C)c1cc(Cl)ccc1NS(=O)(=O)C(F)(F)F)c1ccc(Cl)cc1Cl [Compound 30]	100%	–	–	90	–	5.2	8.5	100	–	–
CCN(N=C(C)c1cc(Cl)ccc1NS(=O)(=O)C(F)(F)F)c1ccccc1 [Compound 34]	–	0.97	–	100	–	–	3.6	–	100	100
CCC(=NN1CCOC1=O)c1cc(Cl)ccc1NS(=O)(=O)C(F)(F)F [Compound 35]	100%	–	–	100	–	4.3	1.5	100	–	–
CCC(=NN1CCOCC1)c1cc(Cl)ccc1NS(=O)(=O)C(F)(F)F [Compound 36]	100%	–	–	100	–	2.5	1.8	100	–	–
CCN(N=C(C)c1cc(Cl)ccc1NS(=O)(=O)C(F)(F)F)c1cccc(Cl)c1 [Compound 38]	100%	–	–	98	–	2.5	3.6	100	–	–
CCN(N=C(C)c1cc(Cl)ccc1NS(=O)(=O)C(F)(F)F)c1ccc(F)cc1 [Compound 39]	100%	–	–	100	–	0.14	3.6	100	–	–
CCCN(N=C(C)c1cc(Cl)ccc1NS(=O)(=O)C(F)(F)F)c1ccc(C(F)(F)F)cc1 [Compound 41]	94%	–	–	100	–	0.44	3.8	100	–	–
CCN(N=C(C)c1cc(Cl)ccc1NS(=O)(=O)C(F)(F)F)c1ccccc1F [Compound 43]	90%	–	–	100	–	0.35	3.0	100	–	–
CC(=NN(C)c1ccc(Br)cc1)c1cc(Cl)ccc1NS(=O)(=O)C(F)(F)F [Compound 63]	100%	–	–	100	100	2.4	–	–	–	–
CC(=NN(C)c1ccc(C)cc1)c1cc(Cl)ccc1NS(=O)(=O)C(F)(F)F [Compound 75]	100%	–	–	100	100	1.4	–	–	–	–
